# Strand notation (5' to 3'): a small letter for the sugar, then the base; units joined by * are phosphorothioate-linked, units joined directly phosphodiester-linked; [ ] holds rarer units or linkages, { } end groups; capitals alone tell only the bases. k = constrained ethyl (cEt); [5mC] = 5-methylcytosine; d = 2'-deoxy (DNA)
# Tested on: human SMAD7 mRNA
# Assay: Antisense inhibition of human SMAD7 mRNA expression in Hep3B cells by 3-10-3 cEt gapmers, 10,000 nM, electroporation (Example 2)
# Assay type: cell-based
# Settings: SMAD7 mRNA, Hep3B cells, 10,000 nM antisense oligonucleotide, electroporation, approximately 24 hours, primer probe set RTS5062, relative to untreated control cells
# How it was run: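 Percent inhibition of SMAD7 mRNA, relative to untreated cells, after ~24 h exposure of electroporated Hep3B cells to 10,000 nM cEt gapmer; levels by qRT-PCR, corrected for total RNA.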
row,Substance,% Inhibition [%]
1,800795 (antisense kT*kA*kA*d[5mC]*dT*dG*d[5mC]*dT*dG*d[5mC]*dG*dG*dT*kT*kG*kT) [compound 800795],12
2,800798 (antisense k[5mC]*k[5mC]*kT*dG*dG*dA*dG*dT*d[5mC]*d[5mC]*dG*dG*dG*kT*kT*kG) [compound 800798],36
3,800837 (antisense kA*kA*kA*d[5mC]*d[5mC]*dT*dT*dT*dG*dT*dA*dG*dT*kT*kA*kG) [compound 800837],41
4,800843 (antisense kT*k[5mC]*kG*dG*d[5mC]*d[5mC]*dA*d[5mC]*dA*d[5mC]*dA*d[5mC]*d[5mC]*kT*k[5mC]*kA) [compound 800843],32
5,800858 (antisense kA*kG*k[5mC]*d[5mC]*d[5mC]*dA*dA*d[5mC]*dT*dG*dT*dT*dT*kG*kT*k[5mC]) [compound 800858],40
6,800861 (antisense k[5mC]*k[5mC]*kA*dG*dT*dT*dG*dG*dT*dT*dT*dG*dA*kG*kA*kA) [compound 800861],32
7,800883 (antisense kA*k[5mC]*k[5mC]*dA*dT*dT*dT*dA*dT*d[5mC]*dT*dG*dG*kT*kG*kT) [compound 800883],50
8,800998 (antisense k[5mC]*k[5mC]*k[5mC]*dG*d[5mC]*dT*d[5mC]*dT*d[5mC]*dA*dG*d[5mC]*d[5mC]*kA*kG*kG) [compound 800998],39
9,800999 (antisense k[5mC]*kA*kT*dT*d[5mC]*dA*dT*dT*dA*dA*dG*d[5mC]*d[5mC]*k[5mC]*kG*k[5mC]) [compound 800999],54
10,801003 (antisense kG*kA*kA*dT*d[5mC]*dA*dA*dG*d[5mC]*d[5mC]*d[5mC]*dT*dG*kG*k[5mC]*kT) [compound 801003],38
11,801128 (antisense kA*kG*kT*dA*dT*d[5mC]*d[5mC]*dA*dT*d[5mC]*dA*dA*d[5mC]*kT*kG*k[5mC]) [compound 801128],48
12,801132 (antisense kG*kG*kT*dG*dA*d[5mC]*dT*d[5mC]*dA*dT*d[5mC]*dA*dG*kG*k[5mC]*kA) [compound 801132],55
13,801138 (antisense kG*kT*kT*dA*dG*dG*dA*d[5mC]*d[5mC]*dT*dG*dG*dG*kA*kA*k[5mC]) [compound 801138],6
14,801145 (antisense kA*k[5mC]*kG*d[5mC]*dT*dG*dT*dG*dG*dT*dT*dT*dG*kT*kG*kG) [compound 801145],0
15,829715 (antisense kT*k[5mC]*kT*d[5mC]*d[5mC]*d[5mC]*dG*dG*dA*dG*dG*d[5mC]*d[5mC]*kG*kG*kG) [compound 829715],40
16,829716 (antisense kG*kT*k[5mC]*dT*d[5mC]*d[5mC]*d[5mC]*dG*dG*dA*dG*dG*d[5mC]*k[5mC]*kG*kG) [compound 829716],10
17,829717 (antisense kA*kG*kT*d[5mC]*dT*d[5mC]*d[5mC]*d[5mC]*dG*dG*dA*dG*dG*k[5mC]*k[5mC]*kG) [compound 829717],28
18,829718 (antisense k[5mC]*k[5mC]*kA*dG*dT*d[5mC]*dT*d[5mC]*d[5mC]*d[5mC]*dG*dG*dA*kG*kG*k[5mC]) [compound 829718],15
19,829719 (antisense kG*k[5mC]*k[5mC]*dA*dG*dT*d[5mC]*dT*d[5mC]*d[5mC]*d[5mC]*dG*dG*kA*kG*kG) [compound 829719],15
20,829720 (antisense kG*k[5mC]*kG*d[5mC]*d[5mC]*dA*dG*dT*d[5mC]*dT*d[5mC]*d[5mC]*d[5mC]*kG*kG*kA) [compound 829720],14
21,829721 (antisense kT*kG*k[5mC]*dG*d[5mC]*d[5mC]*dA*dG*dT*d[5mC]*dT*d[5mC]*d[5mC]*k[5mC]*kG*kG) [compound 829721],33
22,829722 (antisense kA*kT*kG*d[5mC]*dG*d[5mC]*d[5mC]*dA*dG*dT*d[5mC]*dT*d[5mC]*k[5mC]*k[5mC]*kG) [compound 829722],38
23,829723 (antisense kG*k[5mC]*kA*dT*dG*d[5mC]*dG*d[5mC]*d[5mC]*dA*dG*dT*d[5mC]*kT*k[5mC]*k[5mC]) [compound 829723],54
24,829724 (antisense kG*kG*k[5mC]*dA*dT*dG*d[5mC]*dG*d[5mC]*d[5mC]*dA*dG*dT*k[5mC]*kT*k[5mC]) [compound 829724],54
25,829725 (antisense k[5mC]*k[5mC]*kG*dT*dG*dG*d[5mC]*dA*dT*dG*d[5mC]*dG*d[5mC]*k[5mC]*kA*kG) [compound 829725],41
26,829726 (antisense k[5mC]*kT*k[5mC]*d[5mC]*dG*dT*dG*dG*d[5mC]*dA*dT*dG*d[5mC]*kG*k[5mC]*k[5mC]) [compound 829726],41

row,Substance,% Inhibition [%]
1,829727 (antisense kG*k[5mC]*kT*d[5mC]*d[5mC]*dG*dT*dG*dG*d[5mC]*dA*dT*dG*k[5mC]*kG*k[5mC]) [compound 829727],35
2,829728 (antisense kG*kG*k[5mC]*dG*d[5mC]*dA*dG*dG*d[5mC]*dG*dA*d[5mC]*dA*kG*k[5mC]*kA) [compound 829728],44
3,829729 (antisense kA*kG*kG*d[5mC]*dG*d[5mC]*dA*dG*dG*d[5mC]*dG*dA*d[5mC]*kA*kG*k[5mC]) [compound 829729],66
4,829730 (antisense kG*k[5mC]*kA*dG*dG*d[5mC]*dG*d[5mC]*dA*dG*dG*d[5mC]*dG*kA*k[5mC]*kA) [compound 829730],23
5,829731 (antisense kA*kG*k[5mC]*dA*dG*dG*d[5mC]*dG*d[5mC]*dA*dG*dG*d[5mC]*kG*kA*k[5mC]) [compound 829731],50
6,829732 (antisense k[5mC]*kA*kT*dG*dA*dA*dG*dA*dA*dG*dT*d[5mC]*dG*kG*kG*k[5mC]) [compound 829732],40
7,829733 (antisense kA*k[5mC]*k[5mC]*dA*dT*dG*dA*dA*dG*dA*dA*dG*dT*k[5mC]*kG*kG) [compound 829733],54
8,829735 (antisense k[5mC]*k[5mC]*kT*d[5mC]*d[5mC]*dG*d[5mC]*dA*d[5mC]*dA*d[5mC]*d[5mC]*dA*kT*kG*kA) [compound 829735],61
9,829736 (antisense kG*kG*kA*dG*d[5mC]*dG*dA*dA*d[5mC]*dA*dT*dG*dA*k[5mC]*k[5mC]*kT) [compound 829736],41
10,829737 (antisense kA*kG*kG*dA*dG*d[5mC]*dG*dA*dA*d[5mC]*dA*dT*dG*kA*k[5mC]*k[5mC]) [compound 829737],52
11,829738 (antisense kT*kA*kA*dG*dG*dA*dG*d[5mC]*dG*dA*dA*d[5mC]*dA*kT*kG*kA) [compound 829738],49
12,829739 (antisense kT*kG*k[5mC]*dT*dA*dA*dG*dG*dA*dG*d[5mC]*dG*dA*kA*k[5mC]*kA) [compound 829739],44
13,829740 (antisense k[5mC]*kT*kG*d[5mC]*dT*dA*dA*dG*dG*dA*dG*d[5mC]*dG*kA*kA*k[5mC]) [compound 829740],52
14,829741 (antisense k[5mC]*k[5mC]*kG*dG*dA*d[5mC]*dG*dA*dG*d[5mC]*dG*d[5mC]*dA*kG*kA*kT) [compound 829741],32
15,829742 (antisense k[5mC]*kG*k[5mC]*d[5mC]*dG*dG*dA*d[5mC]*dG*dA*dG*d[5mC]*dG*k[5mC]*kA*kG) [compound 829742],43
16,829743 (antisense kA*k[5mC]*kG*d[5mC]*d[5mC]*dG*dG*dA*d[5mC]*dG*dA*dG*d[5mC]*kG*k[5mC]*kA) [compound 829743],25
17,829744 (antisense kA*k[5mC]*kG*dG*d[5mC]*dT*d[5mC]*d[5mC]*dT*d[5mC]*d[5mC]*dA*dG*kA*kG*kA) [compound 829744],39
18,829745 (antisense k[5mC]*kG*kG*dG*d[5mC]*dG*d[5mC]*dA*d[5mC]*dG*dG*d[5mC]*dT*k[5mC]*k[5mC]*kT) [compound 829745],19
19,829746 (antisense k[5mC]*k[5mC]*kG*dG*dG*d[5mC]*dG*d[5mC]*dA*d[5mC]*dG*dG*d[5mC]*kT*k[5mC]*k[5mC]) [compound 829746],46
20,829747 (antisense kT*k[5mC]*kG*d[5mC]*d[5mC]*dG*d[5mC]*d[5mC]*dG*dG*dG*d[5mC]*dG*k[5mC]*kA*k[5mC]) [compound 829747],16
21,829748 (antisense k[5mC]*kT*k[5mC]*dG*d[5mC]*d[5mC]*dG*d[5mC]*d[5mC]*dG*dG*dG*d[5mC]*kG*k[5mC]*kA) [compound 829748],43
22,829749 (antisense kT*k[5mC]*k[5mC]*dT*d[5mC]*dG*d[5mC]*d[5mC]*dG*d[5mC]*d[5mC]*dG*dG*kG*k[5mC]*kG) [compound 829749],26
23,829750 (antisense k[5mC]*kG*kT*d[5mC]*d[5mC]*dT*d[5mC]*dG*d[5mC]*d[5mC]*dG*d[5mC]*d[5mC]*kG*kG*kG) [compound 829750],33
24,829751 (antisense kG*k[5mC]*kA*dG*d[5mC]*dT*d[5mC]*dG*d[5mC]*d[5mC]*dT*d[5mC]*d[5mC]*kT*k[5mC]*k[5mC]) [compound 829751],40
25,829752 (antisense k[5mC]*k[5mC]*kG*d[5mC]*dA*dG*d[5mC]*dT*d[5mC]*dG*d[5mC]*d[5mC]*dT*k[5mC]*k[5mC]*kT) [compound 829752],27
26,829753 (antisense kT*k[5mC]*k[5mC]*d[5mC]*d[5mC]*dG*d[5mC]*dA*dG*d[5mC]*dT*d[5mC]*dG*k[5mC]*k[5mC]*kT) [compound 829753],29

# — US10517889B2, “Modulators of SMAD7 expression” (Ionis Pharmaceuticals, Inc., priority 2017, dated 2019)
